Measured values reported in patent US20040208844A1, “Products and drug delivery vehicles” (priority 2001, published 2004).
pKi: −log10 of the molar value.

Target: T1, Human placenta or human platelet vitronectin receptor, αvβ3 (Homo sapiens, UniProt P05106+P06756)
T1 construct: Human placenta or human platelet vitronectin receptor, αvβ3; from tissue; host or cells: human placenta or human platelets
Test: [3H]-SK&F-107260 vitronectin receptor binding assay
Conditions: sample dissolved in 1:1 TBS:DMSO; 5 nM [3H]-SK&F-107260
Procedure: In vitro binding affinity of conjugates, polymeric micelles and polymer therapeutics of the present invention may be determined by receptor binding assays such as are known in the art. Conjugates, polymeric micelles and polymer therapeutics of the present invention will have a Ki (the dissociation constant of the antagonist) according to a receptor binding assay in the nanomolar to micromolar range, preferably in the nanomolar range.
The following samples were prepared for an in vitro binding assay:
Solution #1: polymer-receptor antagonist conjugate according to Example 3b, dissolved in TBS at a concentration of 10 milliMole of VRA 1.
Solution #2: PEG-PLA copolymer according to Example 2B, dissolved in TBS at a concentration of 50 mg/ml;
Solution #3: VRA 1 dissolved in 1:1 TBS:DMSO at a concentration of 10 milliMole;
Solution #4: polymer-receptor antagonist conjugate according to Example 3b, dissolved in 1:1 TBS:DMSO at a concentration of 10 milliMole VRA 1; and […]
Binding studies were carried out according to the method described by Wong et al., Studies on alphavbeta3/ligand interactions using a (^3H)SK&F-107260 binding assay, Mol. Pharmacology, 1996, 50, 529-537. […] After one hour incubation at room temperature, the wells were aspirated completely and washed twice with 100 ul of ice-cold Buffer A. Bound [^3H]-SK&F-107260 was solubilized and counted.

T1 sequence (P06756 31-889 limits assumed): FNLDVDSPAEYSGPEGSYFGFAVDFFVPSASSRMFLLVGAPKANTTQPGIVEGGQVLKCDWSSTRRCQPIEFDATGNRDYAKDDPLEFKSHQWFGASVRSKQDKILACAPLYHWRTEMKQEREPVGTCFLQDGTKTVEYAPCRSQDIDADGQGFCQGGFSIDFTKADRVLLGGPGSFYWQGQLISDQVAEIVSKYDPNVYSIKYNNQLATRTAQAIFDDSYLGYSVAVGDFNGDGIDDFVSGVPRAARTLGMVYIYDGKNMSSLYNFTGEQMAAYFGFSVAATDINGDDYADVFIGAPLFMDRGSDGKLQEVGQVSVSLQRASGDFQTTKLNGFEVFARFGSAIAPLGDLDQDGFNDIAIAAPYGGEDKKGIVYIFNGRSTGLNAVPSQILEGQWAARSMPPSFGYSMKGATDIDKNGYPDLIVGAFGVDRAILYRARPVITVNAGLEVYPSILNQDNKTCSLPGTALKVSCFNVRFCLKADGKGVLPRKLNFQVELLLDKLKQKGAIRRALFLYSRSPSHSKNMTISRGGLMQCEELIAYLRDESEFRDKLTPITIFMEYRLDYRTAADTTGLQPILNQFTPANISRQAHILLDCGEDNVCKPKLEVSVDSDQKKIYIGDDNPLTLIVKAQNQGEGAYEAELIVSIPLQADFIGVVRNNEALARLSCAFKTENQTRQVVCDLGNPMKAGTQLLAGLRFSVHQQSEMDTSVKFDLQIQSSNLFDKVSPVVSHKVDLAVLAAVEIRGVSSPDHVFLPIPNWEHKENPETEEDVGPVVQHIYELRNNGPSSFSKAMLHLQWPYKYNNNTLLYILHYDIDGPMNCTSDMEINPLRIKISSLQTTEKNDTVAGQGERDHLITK
T1 sequence (P06756 891-1048 partner limits assumed): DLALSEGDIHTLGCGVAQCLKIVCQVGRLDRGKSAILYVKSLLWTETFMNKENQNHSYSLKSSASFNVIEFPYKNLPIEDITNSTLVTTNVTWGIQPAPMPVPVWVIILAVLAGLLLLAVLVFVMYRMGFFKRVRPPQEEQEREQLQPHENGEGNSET
T1 sequence (P05106 27-788): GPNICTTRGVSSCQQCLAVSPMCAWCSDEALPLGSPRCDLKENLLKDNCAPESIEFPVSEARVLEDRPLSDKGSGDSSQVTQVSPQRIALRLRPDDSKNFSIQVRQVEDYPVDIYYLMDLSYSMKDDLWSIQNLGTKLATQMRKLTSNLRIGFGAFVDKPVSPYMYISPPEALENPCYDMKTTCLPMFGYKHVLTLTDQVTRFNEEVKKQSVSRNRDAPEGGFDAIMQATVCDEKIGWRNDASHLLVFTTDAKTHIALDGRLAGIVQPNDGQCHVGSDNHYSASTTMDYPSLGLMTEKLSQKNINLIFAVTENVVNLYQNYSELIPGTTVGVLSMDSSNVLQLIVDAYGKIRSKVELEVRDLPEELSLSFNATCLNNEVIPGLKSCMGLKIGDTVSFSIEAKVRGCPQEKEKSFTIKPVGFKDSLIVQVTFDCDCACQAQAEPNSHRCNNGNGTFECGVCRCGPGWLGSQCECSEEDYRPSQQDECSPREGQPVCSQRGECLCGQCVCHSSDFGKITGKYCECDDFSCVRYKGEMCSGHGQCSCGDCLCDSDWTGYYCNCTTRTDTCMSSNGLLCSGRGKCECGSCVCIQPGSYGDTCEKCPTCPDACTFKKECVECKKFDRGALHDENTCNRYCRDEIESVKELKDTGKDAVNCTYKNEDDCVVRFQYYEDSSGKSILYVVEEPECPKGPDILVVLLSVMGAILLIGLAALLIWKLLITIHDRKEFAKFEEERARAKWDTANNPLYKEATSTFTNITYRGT

pKi: 8.77
Compound: CN1Cc2cc(C(=O)N(CCCCN)Cc3nc4ccccc4[nH]3)ccc2N[C@@H](CC(=O)O)C1=O [VRA 1, (S)-7-[[N-(4-Aminobutyl)-N-(benzimidazol-2-ylmethyl)]amino]carbonyl-4-methyl-3-oxo-2,3,4,5-tetrahydro-1H-1,4-benzodiazepine-2-acetic acid]
